Holding throughout (assay type): cell-based
One assay has as its system MDA-MB-361. Put plainly: Cell proliferation MTT assay. Particulars: MDA-MB-361, 7 days, read-out: 7 day IC50. As to the method:
(§1) Cells were seeded in 12-well plates at densities ranging from 10000-30000 cells/well and after 24 hours cells were treated with 10, 40 and 100 nM THZ1 in triplicate. After 7 days the cells were imaged using Zeiss Axiovert 200 microscope using a 20× objective lens. Additionally, cells were plated in 96-well plates at a density of 2000 cells/well and after 24 hours treated with 0-10 μM THZ1. After 2 and 7 days the growth of the cells was measured by MTT assay.
(§2) All results were presented as mean±standard deviation of 4-8 parallel assessments. Similar results were obtained from a minimum of two independent experiments. […] Densitometry was performed on duplicate immunoblots using ImageLab software (Biorad) and normalized to tubulin loading controls and then correlated with the THZ1 IC50 values of each cell line. Statistical analyses were performed using SPSS 18.0 (SPSS Inc). Bi-variant scatter graphs and Spearman rank analyses were performed to evaluate associations between protein levels, mRNA and response to inhibition. IC50 values were calculated for MTT assays using CompuSyn software.
(Tetrazolium dyes change colour on reduction, which living cells bring about.)

The test system of a further assay is T47D. Put plainly: Cell proliferation MTT assay. As to conditions: 7 days, read-out: 7 day IC50. As to the method:
as §1, §2

The subject of the next assay is JIMT-1. Put plainly: Cell proliferation MTT assay. As to conditions: JIMT-1, 7 days, MTT; read-out: 7 day IC50. As to the method: as §1, §2
The subject of the next assay is MCF7. Put plainly: Cell proliferation MTT assay. As to conditions: MCF7, 7 days, read-out: 7 day IC50. As to the method:
as §1, §2

A further assay relates to SKBR3. The assay is described as follows: Cell proliferation MTT assay. As to conditions: SKBR3, 7 days, read-out: 7 day IC50. The protocol:
as §1, §2

The next assay deals with ZR-75-1. The assay is described as follows: Cell proliferation MTT assay. As to conditions: ZR-75-1, 7 days, read-out: 7 day IC50. The protocol: as §1, §2
A further assay has as its system MDA-MB-231. The assay is described as follows: Cell proliferation MTT assay. As to conditions: MDA-MB-231, 7 days, read-out: 7 day IC50. The protocol:
as §1, §2

The test system of assay [1] is panel of breast cancer cell lines. The assay is described as follows: Cell proliferation MTT assay, cell line panel. Particulars: 7 days. As to the method:
as §1, §2
To investigate the effect of CDK7 inhibition in a time and dose dependent manner, an extended panel of 11 breast cancer cell lines were screened for response to THZ1 after 2 and 7 days of treatment.

Each structure is given as a SMILES string.

A word on the IC50: it is the point on the concentration scale where inhibition reaches its midpoint. For `CC(C)c1cnn2c(NCc3ccccc3)cc(NCCCCCCN)nc12` [BS-181], the IC50 in the assay with MDA-MB-361 was 4.9 µM; in the assay with T47D, 8.5 µM; in the assay with JIMT-1, 11.1 µM; in the assay on MCF7 it was 32.1 µM; in the assay on SKBR3 it was 8.9 µM; with ZR-75-1, 19.6 µM. Moreover, the IC50 in the assay on MDA-MB-231 was 39.5 µM. Also, in assay [1] (all tested breast cancer cell lines), the growth inhibition entry is recorded as “inhibited the growth of all tested breast cancer cell lines”. Further, in assay [1] (cell line panel), the “efficiency of growth inhibition compared with THZ1” value is recorded as “much less efficient than THZ1”.

(Values after patent publication US10913983B2, “Sensitivity markers and uses for CDK7 inhibitors in breast cancers” (UNIVERSITY OF SOUTH CAROLINA, priority 2017, dated 2021).)
